From patent US4065461A, “Amino containing pyridyloxy propanols” (Aktieselskabet Grindstedvaerket, priority 1975, dated 1977)
Read-outs that look alike come from different tables or passages of the source.

Columns and labels:
in vivo = settings: mouse, iv
β1 -receptors [1] = assay: β1-adrenoreceptor blockade: antagonism of isoprenaline-induced changes in heart rate in anaesthetized cats; format: in vivo; settings: for ratio between these two activities (ED50 β2 / ED50 β1): anaesthetized cats, intravenous, Table I; for selectivity for β1 -receptors versus β2 -receptors, in words: conclusion from Table I
Text: (§1) The examinations thus comprise selective effect against isoprenaline-induced changes in heart rate, which are presumed to be elicited by stimulation of β1 -receptors; and against the reduction in tone in the peripheral vasculature induced by the said agonist is presumed to be due to stimulation of β2 -receptors.
(§2) The test animals were adult cats of either sex.
(§3) The heart rate was derived electronically from the blood pressure in the right carotid artery, and the reduction in tone in the peripheral vasculature was determined by recording changes in hind quarter vascular resistance.
(§4) Each cat was dosed repeatedly at 15 minutes' intervals throughout the experiment with 1 μg isoprenaline as the hydrochloride, the dose of this and the other standard drugs being stated in terms of the base. When constant responses of both heart rate and hind quarter perfusion pressure were obtained, a dose of 4 μg/kg of one of the test compounds was administered intraveneously 2 minutes before the isoprenaline dose. This initial dose of the test compound was administered again 15 minutes later. Thereafter, the test compound was administered at 15 minutes' intervals, each successive dose being twice the preceeding dose, the injection always being given two minutes prior to the next isoprenaline dose. […] In this way, cumulative dose-response curves for the effects of each test compound could be calculated and approximately ED50 values obtained.

β1 -receptors [2] = target: T1, β1 -receptors (Felis catus, UniProt Q9TST6); assay: as above; format: in vivo; settings: for ED50: cat, read-out: Approximate ED50 value for β1 -receptor blockade; for potency as antagonist of the β1 -receptors relative to propranolol: compared with propranolol, Table I; for activity as antagonist of the β1 -receptors, in words: conclusion from Table I
T1 construct: The test animals were adult cats of either sex; from tissue; host or cells: heart of anaesthetized cat, in vivo
T1 sequence (Q9TST6 whole entry): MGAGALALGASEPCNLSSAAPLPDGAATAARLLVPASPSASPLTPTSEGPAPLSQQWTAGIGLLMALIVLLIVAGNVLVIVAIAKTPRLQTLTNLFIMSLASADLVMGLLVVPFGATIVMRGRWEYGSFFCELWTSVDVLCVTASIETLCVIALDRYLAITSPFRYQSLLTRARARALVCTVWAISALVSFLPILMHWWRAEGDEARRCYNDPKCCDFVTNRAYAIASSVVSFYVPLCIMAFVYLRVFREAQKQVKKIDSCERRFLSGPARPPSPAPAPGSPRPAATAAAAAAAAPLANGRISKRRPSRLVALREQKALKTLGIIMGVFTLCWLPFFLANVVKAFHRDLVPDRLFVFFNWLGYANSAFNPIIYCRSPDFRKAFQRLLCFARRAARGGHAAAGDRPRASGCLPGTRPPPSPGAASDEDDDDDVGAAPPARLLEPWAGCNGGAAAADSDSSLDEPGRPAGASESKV
Text: as §1, §2, §3, §4

β2 -receptors = target: T2, β2 -receptors (Felis catus, UniProt Q9TST5); assay: β2-adrenoreceptor blockade: antagonism of isoprenaline-induced reduction in tone in the peripheral vasculature (hind quarter perfusion pressure) in anaesthetized cats; format: in vivo; settings: cat, read-out: Approximate ED50 value for β2 -receptor blockade
T2 construct: The test animals were adult cats of either sex; from tissue; host or cells: hind quarter vasculature of anaesthetized cat, in vivo
T2 sequence (Q9TST5 whole entry, the tested form may be a part): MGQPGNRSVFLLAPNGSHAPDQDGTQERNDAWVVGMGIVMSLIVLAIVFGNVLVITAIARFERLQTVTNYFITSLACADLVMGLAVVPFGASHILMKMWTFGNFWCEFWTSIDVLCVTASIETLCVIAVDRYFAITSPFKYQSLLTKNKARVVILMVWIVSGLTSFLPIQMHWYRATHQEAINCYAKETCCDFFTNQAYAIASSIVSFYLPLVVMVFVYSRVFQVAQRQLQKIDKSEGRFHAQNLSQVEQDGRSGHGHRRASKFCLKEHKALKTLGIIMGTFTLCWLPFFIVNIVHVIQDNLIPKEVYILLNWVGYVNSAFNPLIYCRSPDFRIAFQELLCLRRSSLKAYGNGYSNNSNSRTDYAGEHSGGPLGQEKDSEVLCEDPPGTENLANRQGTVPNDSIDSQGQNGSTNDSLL
Text: as §1, §2, §3, §4

mice = settings: for toxicity, in words: conclusion from Table II
[3] = system: β1 -receptors and β2 -receptors; settings: background; cited from earlier work
[4] = anaesthetized cats, intravenous, cumulative doses, isoprenaline-induced change in heart rate
[5] = anaesthetized cats, intravenous, cumulative doses, isoprenaline-induced change in hind quarter perfusion pressure

For `CC(C)NCC(O)COc1cccnc1` (centres unmarked) [Compound 1, 1-Isopropylamino-3-(3-pyridyloxy)-2-propanol], the LD50 (in vivo) was 261 mg/kg, the “ratio between these two activities (ED50 β2 / ED50 β1)” value (β1 -receptors [1]) was 207.1 and the “selectivity for β1 -receptors versus β2 -receptors, in words” value (from here on “selectivity for β1 -receptors versus β2”) (β1 -receptors [1]) was “outstanding selectivity as β1 -adrenoblocking agent”. The ED50 (β1 -receptors [2]; iv) was 0.007 mg/kg, the “potency as antagonist of the β1 -receptors relative to propranolol” value (“potency … -receptors relative to propranolol” below) (β1 -receptors [2]) was “greater than” and the “activity as antagonist of the β1 -receptors, in words” value (β1 -receptors [2]) was “extremely active”. For the same molecule, the ED50 (β2 -receptors; iv) was 1.45 mg/kg, the “toxicity, in words” value (mice; intravenous, mice) was “low toxicity” and the LD50 (mice; mice, female, intravenous) was 285.2 mg/kg.

With `CC(C)NCC(O)COc1cccnc1N` (centres unmarked) [Compound 2, 1-Isopropylamino-3-[(2-amino-3-pyridyl)oxy]-2-propanol] the LD50 (in vivo) was 203 mg/kg, the “ratio between these two activities (ED50 β2 / ED50 β1)” value (β1 -receptors [1]) was 43.8 and the “selectivity for β1 -receptors versus β2” value (β1 -receptors [1]) was “high degree of selectivity”. For the same molecule, the ED50 (β1 -receptors [2]; [4]) was 0.08 mg/kg, the “potency … -receptors relative to propranolol” value (β1 -receptors [2]) was “approximately equal to” and the ED50 (β2 -receptors; [5]) was 3.5 mg/kg. The “toxicity, in words” value (mice; intravenous, mice) was “somewhat less toxic” and the LD50 (mice; mouse, in vivo, iv) was 192.0 mg/kg.

For `CC(=O)Nc1ccc(OCC(O)CNC(C)C)cc1` (centres unmarked) [Compound 3, practolol], the LD50 (in vivo) is given as 41.6 mg/kg, the “receptor blocking profile, in words” value [3] is given as “substantial blocking activity on the β1 -receptors and not on the β2 -receptors” and the “ratio between these two activities (ED50 β2 / ED50 β1)” value (β1 -receptors [1]) is given as 28.9. For the same molecule, the “selectivity for β1 -receptors versus β2” value (β1 -receptors [1]) was “approximately thirty times more selectivity against the β1 -receptors than against β2 -receptors”, the ED50 (β1 -receptors [2]; [4]) was 0.36 mg/kg and the “potency … -receptors relative to propranolol” value (β1 -receptors [2]) was “much less active than propranolol”. It also gave an ED50 (β2 -receptors; [5]) of 10.4 mg/kg and an LD50 (mice; mouse, in vivo, iv) of 31.6 mg/kg.

For `CC(C)NCC(O)COc1cccc2ccccc12` (centres unmarked) [Compound 4, 1-(isopropylamino)-3-(1-naphthyloxy)-2-propanol], the “receptor blocking profile, in words” value [3] is given as “act more or less indiscriminately on both types of β-receptors”.

In the case of `Cc1ccc(OCC(O)CNC(C)C)cn1` (centres unmarked) [Compound 5], the LD50 (in vivo) is reported as 285 mg/kg, the “ratio between these two activities (ED50 β2 / ED50 β1)” value (β1 -receptors [1]) is reported as > 5.8 and the “selectivity for β1 -receptors versus β2” value (β1 -receptors [1]) is reported as “rather low degree of selectivity”. For the same molecule, the ED50 (β1 -receptors [2]; iv) was 0.7 mg/kg, the “activity as antagonist of the β1 -receptors, in words” value (β1 -receptors [2]) was “not very active” and the ED50 (β2 -receptors; iv) was > 4.1 mg/kg. For the same molecule, the LD50 (mice; mice, female, intravenous) was 239.4 mg/kg.

With `CC(C)NCC(O)COc1cccnc1Cl` (centres unmarked) [Compound 6] the LD50 (in vivo) was 165 mg/kg, the “ratio between these two activities (ED50 β2 / ED50 β1)” value (β1 -receptors [1]) was 45.0 and the ED50 (β1 -receptors [2]; iv) was 0.03 mg/kg. For the same molecule, the ED50 (β2 -receptors; iv) was 1.35 mg/kg and the LD50 (mice; mice, female, intravenous) was 180.2 mg/kg.
